Laboratory results reported in patent US20100099561A1, “HETEROBICYCLIC ALKYLTHIO-BRIDGED ISOXAZOLINES” (E.I. DU PONT DE NEMOURS AND COMPANY, priority 2008, published 2010).

Columns and labels:
Assay type in all cases: in vivo
[1] = test system: giant foxtail (Setaria faberi); test: Test A preemergence, giant foxtail; conditions: 0 to 100 scale (0 no effect, 100 complete control)
Method in brief: (§1)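 Seeds planted in loam–sand blend; compounds in non-phytotoxic solvent with surfactant applied as directed preemergence soil spray, or postemergence to plants 2–10 cm tall at one- to two-leaf stage. After ~10 days in greenhouse, injury rated visually versus untreated controls on 0–100 scale (100 = complete control).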

[2] = test system: morningglory (Ipomoea spp.); test: Test A preemergence, morningglory; conditions: 0 to 100 scale (0 no effect, 100 complete control)
Method in brief: as §1

[3] = test system: pigweed (Amaranthus retroflexus); test: Test A preemergence, pigweed; conditions: 0 to 100 scale (0 no effect, 100 complete control)
Method in brief: as §1

[4] = test system: morningglory (Ipomoea spp.); test: Test A postemergence, morningglory; conditions: 0 to 100 scale (0 no effect, 100 complete control)
Method in brief: as §1

corn (Zea mays) = test: Test A postemergence, corn; conditions: 0 to 100 scale (0 no effect, 100 complete control)
Method in brief: as §1

[5] = test system: green foxtail (Setaria viridis); test: Test B preemergence, green foxtail; conditions: scale 0 to 100
Source text: (§2) Seeds of plant species selected from blackgrass (Alopecurus myosuroides), downy bromegrass (Bromus tectorum), green foxtail (Setaria viridis), Italian ryegrass (Lolium multiflorum), wheat (Triticum aestivum), wild oat (Avena fatua), catchweed bedstraw (Galium aparine), bermudagrass (Cynodon dactylon), Surinam grass (Brachiaria decumbens), cocklebur (Xanthium strumarium), corn (Zea mays), large crabgrass (Digitaria sanguinalis), woolly cupgrass (Eriochloa villosa), giant foxtail (Setaria faberii), goosegrass (Eleusine indica), johnsongrass (Sorghum halepense), kochia (Kochia scoparia), lambsquarters (Chenopodium album), morningglory (Ipomoea coccinea), nightshade (eastern black nightshade, Solanum ptycanthum), yellow nutsedge (Cyperus esculentus), pigweed (Amaranthus retroflexus), ragweed (common ragweed, Ambrosia elatior), soybean (Glycine max), sunflower (common oilseed sunflower, Helianthus annuus), Russian thistle (Salsola kali), and velvetleaf (Abutilon theophrasti) were planted into a blend of loam soil and sand and treated preemergence with test compounds formulated in a non-phytotoxic solvent mixture which included a surfactant. Treated plants and controls were maintained in a greenhouse for 13 to 15 days, after which time all species were compared to controls and visually evaluated. Plant response ratings, summarized in Table B, are based on a scale of 0 to 100 where 0 is no effect and 100 is complete control. A dash (-) response means no test result.

[6] = test system: Italian ryegrass (Lolium multiflorum); test: Test B preemergence, Italian ryegrass; conditions: Preemergence, scale 0 to 100
Source text: as §2

[7] = test system: wheat (Triticum aestivum); test: Test B preemergence, wheat; conditions: Preemergence, scale 0 to 100
Source text: as §2

wild oat (Avena fatua) = test: Test B preemergence, wild oat; conditions: scale 0 to 100
Source text: as §2

[8] = test system: bermudagrass (Cynodon dactylon); test: Test B preemergence, bermudagrass; conditions: scale 0 to 100
Source text: as §2

[9] = test system: cocklebur (Xanthium strumarium); test: Test B preemergence, cocklebur; conditions: scale 0 to 100
Source text: as §2

[10] = test system: woolly cupgrass (Eriochloa villosa); test: Test B preemergence, woolly cupgrass; conditions: scale 0 to 100
Source text: as §2

[11] = test system: giant foxtail (Setaria faberii); test: Test B preemergence, giant foxtail; conditions: scale 0 to 100
Source text: as §2

[12] = test system: goosegrass (Eleusine indica); test: Test B preemergence, goosegrass; conditions: scale 0 to 100
Source text: as §2

[13] = test system: johnsongrass (Sorghum halepense); test: Test B preemergence, johnsongrass; conditions: scale 0 to 100
Source text: as §2

[14] = test system: pigweed (Amaranthus retroflexus); test: Test B preemergence, pigweed; conditions: scale 0 to 100
Source text: as §2

[15] = test system: umbrella sedge (Cyperus difformis); test: Test B flooded paddy test, umbrella sedge; conditions: Flood, scale 0 to 100
Method in brief: (§3)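 Paddy-water application to 2-leaf plants in pots held under 3 cm of flooding; response is a 0–100 visual control rating against controls after 13 to 15 days, and a dash marks a missing result.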

[16] = test system: ducksalad (Heteranthera limosa); test: Test B flooded paddy test, ducksalad; conditions: Flood, scale 0 to 100
Method in brief: as §3

[17] = test system: barnyardgrass (Echinochloa crus-galli); test: Test B flooded paddy test, barnyardgrass; conditions: Flood
Method in brief: as §3

[18] = 250 g ai/ha, scale 0 to 100 (0 no effect, 100 complete control)

Structure (SMILES): CC1(C)CC(S(=O)(=O)Cc2c(C(F)(F)F)nc3n(c2=O)CCS3)=NO1 [Compound 6]
- Plant response rating, Foxtail, Giant ([1]; 125 g ai/ha): 80
- Plant response rating, Foxtail, Giant ([1]; 500 g ai/ha): 100
- Plant response rating, Morningglory ([2]; 125 g ai/ha): 90
- Plant response rating, Morningglory ([2]; 500 g ai/ha): 100
- Plant response rating, Pigweed ([3]; 125 g ai/ha): 60
- Plant response rating, Pigweed ([3]; 500 g ai/ha): 100
- Plant response rating, Morningglory ([4]; 125 g ai/ha): 40
- Plant response rating, Morningglory ([4]; 500 g ai/ha): 50
- Plant response rating, Corn (corn (Zea mays); 125 g ai/ha): 0
- Plant response rating, Corn (corn (Zea mays); 500 g ai/ha): 0
- Plant response rating, Foxtail, Green ([5]; 16 g ai/ha): 50
- Plant response rating, Foxtail, Green ([5]; 31 g ai/ha): 50
- Plant response rating, Foxtail, Green ([5]; 62 g ai/ha): 50
- Plant response rating, Foxtail, Green ([5]; 125 g ai/ha): 100
- Plant response rating, Ryegrass, Italian ([6]; 16 g ai/ha): 0
- Plant response rating, Ryegrass, Italian ([6]; 31 g ai/ha): 15
- Plant response rating, Ryegrass, Italian ([6]; 62 g ai/ha): 80
- Plant response rating, Ryegrass, Italian ([6]; 125 g ai/ha): 95
- Plant response rating, Wheat ([7]; 16 g ai/ha): 0
- Plant response rating, Wheat ([7]; 31 g ai/ha): 0
- Plant response rating, Wheat ([7]; 62 g ai/ha): 0
- Plant response rating, Wheat ([7]; 125 g ai/ha): 0
- Plant response rating, Oat, Wild (wild oat (Avena fatua); 16 g ai/ha): 30
- Plant response rating, Oat, Wild (wild oat (Avena fatua); 31 g ai/ha): 45
- Plant response rating, Oat, Wild (wild oat (Avena fatua); 62 g ai/ha): 60
- Plant response rating, Oat, Wild (wild oat (Avena fatua); 125 g ai/ha): 60
- Plant response rating, Bermudagrass ([8]; 16 g ai/ha): 100
- Plant response rating, Bermudagrass ([8]; 31 g ai/ha): 100
- Plant response rating, Bermudagrass ([8]; 62 g ai/ha): 100
- Plant response rating, Bermudagrass ([8]; 125 g ai/ha): 100
- Plant response rating, Cocklebur ([9]; 16 g ai/ha): 0
- Plant response rating, Cocklebur ([9]; 31 g ai/ha): 0
- Plant response rating, Cocklebur ([9]; 62 g ai/ha): 0
- Plant response rating, Cocklebur ([9]; 125 g ai/ha): 0
- Plant response rating, Cupgrass, Woolly ([10]; 16 g ai/ha): 60
- Plant response rating, Cupgrass, Woolly ([10]; 31 g ai/ha): 98
- Plant response rating, Cupgrass, Woolly ([10]; 62 g ai/ha): 98
- Plant response rating, Cupgrass, Woolly ([10]; 125 g ai/ha): 100
- Plant response rating, Foxtail, Giant ([11]; 16 g ai/ha): 0
- Plant response rating, Foxtail, Giant ([11]; 31 g ai/ha): 95
- Plant response rating, Foxtail, Giant ([11]; 62 g ai/ha): 100
- Plant response rating, Foxtail, Giant ([11]; 125 g ai/ha): 100
- Plant response rating, Goosegrass ([12]; 16 g ai/ha): 100
- Plant response rating, Goosegrass ([12]; 31 g ai/ha): 100
- Plant response rating, Goosegrass ([12]; 62 g ai/ha): 100
- Plant response rating, Goosegrass ([12]; 125 g ai/ha): 100
- Plant response rating, Johnsongrass ([13]; 16 g ai/ha): 45
- Plant response rating, Johnsongrass ([13]; 31 g ai/ha): 70
- Plant response rating, Johnsongrass ([13]; 62 g ai/ha): 98
- Plant response rating, Johnsongrass ([13]; 125 g ai/ha): 100
- Plant response rating, Pigweed ([14]; 16 g ai/ha): 0
- Plant response rating, Pigweed ([14]; 31 g ai/ha): 50
- Plant response rating, Pigweed ([14]; 62 g ai/ha): 100
- Plant response rating, Pigweed ([14]; 125 g ai/ha): 100
- Plant response rating, Sedge, Umbrella ([15]; 62 g ai/ha): 0
- Plant response rating, Sedge, Umbrella ([15]; 250 g ai/ha): 75
- Plant response rating, Ducksalad ([16]; 62 g ai/ha): 40
- Plant response rating, Ducksalad ([16]; 250 g ai/ha): 65
- Plant response rating, Barnyardgrass ([17]; 62 g ai/ha, scale 0 to 100): 0
- Plant response rating, Barnyardgrass [17, 18]: 0

Structure (SMILES): CC1(C)CC(S(=O)(=O)Cc2c(C(F)(F)F)nc3ccsn3c2=O)=NO1 [Compound 16]
- Plant response rating, Foxtail, Giant ([1]; 125 g ai/ha): 90
- Plant response rating, Foxtail, Giant ([1]; 500 g ai/ha): 90
- Plant response rating, Morningglory ([2]; 125 g ai/ha): 70
- Plant response rating, Morningglory ([2]; 500 g ai/ha): 80
- Plant response rating, Pigweed ([3]; 500 g ai/ha): 100
- Plant response rating, Morningglory ([4]; 125 g ai/ha): 0
- Plant response rating, Morningglory ([4]; 500 g ai/ha): 50
- Plant response rating, Corn (corn (Zea mays); 125 g ai/ha): 0
- Plant response rating, Corn (corn (Zea mays); 500 g ai/ha): 0
- Plant response rating, Foxtail, Green ([5]; 16 g ai/ha): 0
- Plant response rating, Foxtail, Green ([5]; 31 g ai/ha): 20
- Plant response rating, Foxtail, Green ([5]; 62 g ai/ha): 85
- Plant response rating, Foxtail, Green ([5]; 125 g ai/ha): 98
- Plant response rating, Ryegrass, Italian ([6]; 16 g ai/ha): 0
- Plant response rating, Ryegrass, Italian ([6]; 31 g ai/ha): 0
- Plant response rating, Ryegrass, Italian ([6]; 62 g ai/ha): 30
- Plant response rating, Ryegrass, Italian ([6]; 125 g ai/ha): 60
- Plant response rating, Wheat ([7]; 16 g ai/ha): 0
- Plant response rating, Wheat ([7]; 31 g ai/ha): 0
- Plant response rating, Wheat ([7]; 62 g ai/ha): 0
- Plant response rating, Wheat ([7]; 125 g ai/ha): 0
- Plant response rating, Oat, Wild (wild oat (Avena fatua); 16 g ai/ha): 0
- Plant response rating, Oat, Wild (wild oat (Avena fatua); 31 g ai/ha): 20
- Plant response rating, Oat, Wild (wild oat (Avena fatua); 62 g ai/ha): 30
- Plant response rating, Oat, Wild (wild oat (Avena fatua); 125 g ai/ha): 60
- Plant response rating, Cocklebur ([9]; 16 g ai/ha): 0
- Plant response rating, Cocklebur ([9]; 31 g ai/ha): 0
- Plant response rating, Cocklebur ([9]; 62 g ai/ha): 0
- Plant response rating, Cocklebur ([9]; 125 g ai/ha): 0
- Plant response rating, Cupgrass, Woolly ([10]; 16 g ai/ha): 0
- Plant response rating, Cupgrass, Woolly ([10]; 31 g ai/ha): 25
- Plant response rating, Cupgrass, Woolly ([10]; 62 g ai/ha): 95
- Plant response rating, Cupgrass, Woolly ([10]; 125 g ai/ha): 98
- Plant response rating, Foxtail, Giant ([11]; 16 g ai/ha): 0
- Plant response rating, Foxtail, Giant ([11]; 31 g ai/ha): 80
- Plant response rating, Foxtail, Giant ([11]; 62 g ai/ha): 90
- Plant response rating, Foxtail, Giant ([11]; 125 g ai/ha): 98
- Plant response rating, Goosegrass ([12]; 16 g ai/ha): 85
- Plant response rating, Goosegrass ([12]; 31 g ai/ha): 95
- Plant response rating, Goosegrass ([12]; 62 g ai/ha): 100
- Plant response rating, Goosegrass ([12]; 125 g ai/ha): 100
- Plant response rating, Johnsongrass ([13]; 16 g ai/ha): 0
- Plant response rating, Johnsongrass ([13]; 31 g ai/ha): 45
- Plant response rating, Johnsongrass ([13]; 62 g ai/ha): 85
- Plant response rating, Johnsongrass ([13]; 125 g ai/ha): 95
- Plant response rating, Pigweed ([14]; 31 g ai/ha): 0
- Plant response rating, Pigweed ([14]; 62 g ai/ha): 0
- Plant response rating, Pigweed ([14]; 125 g ai/ha): 100
- Plant response rating, Sedge, Umbrella ([15]; 62 g ai/ha): 0
- Plant response rating, Sedge, Umbrella ([15]; 250 g ai/ha): 40
- Plant response rating, Ducksalad ([16]; 62 g ai/ha): 40
- Plant response rating, Ducksalad ([16]; 250 g ai/ha): 40
- Plant response rating, Barnyardgrass ([17]; 62 g ai/ha, scale 0 to 100): 0
- Plant response rating, Barnyardgrass [17, 18]: 0
